{"source": "patent US9567368B2", "about": "“Peptide tyrosinase activators” (Escape Therapeutics, Inc., priority 2013, dated 2017)", "key": {"[1]": {"system": "purified mushroom tyrosinase", "test": "Allosteric activation of tyrosinase after inhibition by 6BH4", "type": "biochemical", "protocol": "To investigate the mechanism by which P9 and P10 exert their stimulatory effect on tyrosinase, 6BH4, an allosteric inhibitor of tyrosinase, was used in an experiment. In a 96-well plate, control wells containing substrate L-tyrosine, purified mushroom tyrosinase, and PBS (pH 6.8) were incubated at 37 degrees Celsius and periodically read at 475 nanometers. After 6 minutes, 20 micromolar 6BH4 was added to all wells except controls. At minute 12, the other triplicate wells received one of the following reagents: 20 micromolar of α-MSH, 100 micromolar of P4, P9, or P10, or 200 micromolar L-tyrosine.\nIn a 96-well plate the control wells contained substrate L-tyrosine, purified mushroom tyrosinase and PBS (pH 6.8). The plate was incubated at 37 degrees Celsius and periodically read at 475 nanometers. After six minutes, 6BH4 was added to all wells except the control triplicate. At minute 12, the other triplicate wells received one of the following reagents: 10 micromolar of α-MSH, 100 micromolar of P4, P9 or P10, and 200 micromolar L-tyrosine. Data shown are mean±SEM of three independent runs."}, "[2]": {"system": "mushroom tyrosinase", "test": "Assay of mushroom tyrosinase activity (L-tyrosine substrate, dopachrome at 475 nm)", "type": "biochemical", "conditions": "for mushroom tyrosinase activity increase: 1 millimolar", "protocol": "The effect of pentapeptides P9 and P10 on mushroom tyrosinase activity was determined in vitro using L-tyrosine as the substrate (see, for example, Piao et al., Chem. Pharm. Bull. (Tokyo), 2002, 50: 309-311). The experiment was conducted in a 96-well flat-bottomed plate. Each well contained 80 microliters of 0.067 molar potassium phosphate buffer (pH 6.8), 40 microliters of 5 milligrams per milliliter L-tyrosine dissolved in 0.067 molar potassium phosphate buffer (pH 6.8), 40 microliters of the different concentrations of P9 or P10 dissolved in the same buffer, and 40 microliters of 480 units per milliliter mushroom tyrosinase solution. The final volume of each well was 200 microliters, containing […] L-tyrosine, 96 units per millileter tyrosinase and varying concentrations of P9 or P10, ranging from 30 micromolar to 1 millimolar. In the control wells, P9 and P10 were substituted with buffer solution and adjusted to a 200 microliters total volume. The assay mixture was incubated at 37 degrees Celsius and optical density (OD), which correlates to the amount of dopachrome produced, was measured periodically at 475 nanometers using a microplate reader (e.g., a Varioskan microplate reader from Thermo Electron Corporation).\nFIGS. 4A and 4B show mushroom tyrosinase activity increased by 123±4 percent and 156±4 percent at 1 millimolar P9 and P10, respectively. […] In the control wells, the reaction mix included purified mushroom tyrosinase, PBS (pH 6.8) and substrate L-tyrosine. In the other triplicate wells, P9 or P10 were added at various concentrations. The reaction was incubated at 37 degrees Celsius and the plate was read periodically at 475 nanometers."}, "[3]": {"biological_target": "T1, B16 tyrosinase (Mus musculus, UniProt P11344)", "T1 construct": "host or cells: B16-F1 mouse melanoma cells", "T1 sequence (P11344 19-533)": "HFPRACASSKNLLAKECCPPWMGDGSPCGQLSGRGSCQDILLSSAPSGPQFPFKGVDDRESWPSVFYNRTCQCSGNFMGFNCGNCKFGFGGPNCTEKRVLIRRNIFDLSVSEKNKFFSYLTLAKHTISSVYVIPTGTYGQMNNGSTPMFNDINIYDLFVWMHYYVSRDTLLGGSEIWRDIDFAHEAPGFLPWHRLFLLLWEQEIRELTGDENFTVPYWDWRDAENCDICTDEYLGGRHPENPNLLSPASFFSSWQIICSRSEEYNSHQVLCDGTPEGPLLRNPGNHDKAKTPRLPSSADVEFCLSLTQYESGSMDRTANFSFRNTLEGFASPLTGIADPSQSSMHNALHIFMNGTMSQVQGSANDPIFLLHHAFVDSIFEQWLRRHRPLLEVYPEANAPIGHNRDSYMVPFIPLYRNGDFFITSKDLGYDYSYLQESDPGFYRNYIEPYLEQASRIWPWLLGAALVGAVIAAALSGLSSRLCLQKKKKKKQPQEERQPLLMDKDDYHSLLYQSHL", "test": "Assay of B16 tyrosinase activity (DOPA oxidase activity)", "type": "cell-based", "conditions": "for B16 tyrosinase activity increase: 72 hours incubation, relative to control cells; for EC50: approximate, see FIG. 3, read-out: EC 50 (dose that produces half the maximum response)", "protocol": "(§1) B16-F1 mouse melanoma cells (CRL-6323) were obtained and cultured in DMEM containing 10 percent fetal bovine serum, 100 units per milliliter (U/mL) penicillin, 0.1 mg/mL streptomycin, and 0.25 microgram per milliliter (μg/mL) amphotericin B at 37 degrees Celsius in a humidified 95 percent air/5 percent CO2 incubator. Drug treatment began 24 hours after seeding. Cells were harvested 72 hours later and melanin content and tyrosinase activity determined in triplicate.\nTyrosinase activity was assayed as DOPA oxidase activity. This can be according to traditional or modified assaying methods (see, for example, Yang et al., Acta Pharmacol. Sin. 2006, 27: 1467-1473). Cells were washed twice with PBS and lysed with 20 […] (mmol/L) Tris-0.1 percent Triton X-100 (pH 7.5). Tyrosinase activity was analyzed spectrophotometrically by following the oxidation of DOPA to DOPAchrome at 475 nanometers. The reaction mixture containing 100 microliter (μL) of freshly prepared substrate solution [0.1 percent L-DOPA in 0.1 mol/L sodium phosphate (pH 6.8)] and 50 microliters (μL) of enzyme solution was incubated at 37 degrees Celsius. Absorbance change was measured during the first 10 minutes of the reaction while the increase of the absorbance was linear, and corrections for auto-oxidation of L-DOPA in the controls were made. Activities were expressed as a percentage of control cells.\n(§2) For the tyrosinase activity, the reaction mixture containing 100 microliter of freshly prepared substrate solution [0.1 percent L-DOPA in 0.1 moles per liter sodium phosphate (pH 6.8)] and 50 microliters of enzyme solution was incubated at 37 degrees Celsius. The absorbance change was measured during the first 10 minutes of the reaction while the increase of the absorbance was linear, and corrections for auto-oxidation of L-DOPA in the controls were made. Activities were expressed as a percentage of the control cells. MTT was performed following the manufacturer's protocol. Data are expressed as a percentage of control and are mean±SEM of three separate experiments."}, "[4]": {"test": "MTT proliferation and viability assay", "type": "cell-based", "conditions": "mouse, B16 cells, percentage of control, read-out: proliferation rate", "protocol": "Proliferation rates were determined using a general cell proliferation kit (e.g., TACS® MTT Cell Proliferation Kit from R&D systems). Cells were plated at 2.5×10E4 per well in 96-well plates in a humidified atmosphere with 5 percent CO2 at 37 degrees Celsius. Twenty-four hours after plating, test samples were added and cultures were incubated for an additional 72 hours. The remainder of the procedure was performed following the manufacturer's protocol.\nas §2"}, "[5]": {"system": "B16-F1 mouse melanoma cells", "test": "Melanin content measurement (extracellular and intracellular) in B16 cells", "type": "cell-based", "conditions": "relative to control", "protocol": "as §1\nExtracellular melanin was estimated spectro-photometrically based on its absorption of light at 475 nanometers. After 72 hours treatment period, medium was collected and centrifuged (800×g for 10 minutes) and absorbance read at 475 nanometers. For intracellular melanin content, cells were collected by centrifugation and resuspended in PBS. Aliquots were removed for cell counting and protein estimation. To the remaining suspension, an equal volume of ethanol:ether (1:1 volume to volume) was added in order to remove opaque substances other than melanin which is not soluble in ethanol/ether (see, for example, Oikawa et al., Yale J. Biol. Med., 1973, 46: 500-507). After further centrifugation at 3000×g for 5 minutes, the precipitate was solubilized by treatment with 1 milliliter of 1 N NaOH solution at 80 degrees Celsius for 30 minutes in capped tubes. The absorbance was measured at 475 nanometers and compared to a standard curve prepared from standard dopa-melanin dissolved in the same solution. Melanin content per microgram (μg) cellular protein was calculated and expressed as a percentage of control.\nFIGS. 2A-2B show the effect of P9 and P10 on extracellular and intracellular melanin content. […] In a specific embodiment, general materials and methods include 3×10E5 B16 cells per well incubated for 72 hours. Control wells had media only. Other treatments were 600 micromolar L-tyrosine; 50 microgram per milliliter scoparone; 300 micromolar IBMX; 300 micromolar P9; and 300 micromolar P10. Data are expressed as a percentage of the control and are mean±SEM of three separate experiments and analyzed by one-way ANOVA. On the graph, for the bar corresponding to extracellular data (indicated by “*”), P<0.01 versus extracellular control, and for the second bar corresponding to intracellular data (indicated by “**”), P<0.01 versus intracellular control."}, "[6]": {"conditions": "10 micromolar α-MSH added at minute 12 after 6BH4"}, "[7]": {"conditions": "300 micromolar, 72 hours incubation"}, "[8]": {"conditions": "600 micromolar L-tyrosine, 72 hours"}}, "note": "Where no end group is shown, it is not given here.", "data": [{"molecule": "α-Melanocyte Stimulating Hormone [α-MSH]", "values": [{"measurement": "reversal of 6BH4-dependent tyrosinase inhibition (reactivation of the enzyme)", "setting": "[1]; [6]", "result": "reactivated the enzyme"}, {"measurement": "tyrosinase activity after reactivation, compared with control", "setting": "[1]; [6]", "result": "increased its activity to levels exceeding the control"}]}, {"molecule": "YSSWY [P9, YSSWY]", "values": [{"measurement": "mushroom tyrosinase activity increase", "setting": "[2]", "result": "123±4", "unit": "%"}, {"measurement": "dopachrome formation increase", "setting": "[2]; 30 micromolar", "result": "28±3", "unit": "%"}, {"measurement": "dopachrome formation increase", "setting": "[2]; 300 micromolar", "result": "100±3", "unit": "%"}, {"measurement": "B16 tyrosinase activity increase", "setting": "[3]; 3 millimolar", "result": "84±3", "unit": "%"}, {"measurement": "B16 tyrosinase activity increase", "setting": "[3]; 300 micromolar", "result": "38±4", "unit": "%"}, {"measurement": "EC50", "setting": "[3]", "result": "~300", "unit": "µM"}, {"measurement": "viability at 72 h, 10 millimolar", "setting": "[4]", "result": "94 ± 2", "unit": "%"}, {"measurement": "extracellular melanin content increase", "setting": "[5]; [7]", "result": 170, "unit": "%"}, {"measurement": "intracellular melanin content increase", "setting": "[5]; [7]", "result": "47±6", "unit": "%"}]}, {"molecule": "C[C@H](O)[C@H](O)[C@H]1CNc2nc(N)[nH]c(=O)c2N1", "note": "[6BH4, (6R)-L-erythro-5,6,7,8-tetrahydrobiopterin]", "values": [{"measurement": "inhibition of tyrosinase activity", "setting": "[1]; 20 micromolar 6BH4 added after 6 minutes", "result": "inhibited completely"}]}, {"molecule": "YRSRK [P10, YRSRK]", "values": [{"measurement": "mushroom tyrosinase activity increase", "setting": "[2]", "result": "156±4", "unit": "%"}, {"measurement": "dopachrome formation increase", "setting": "[2]; 30 micromolar", "result": "45±3", "unit": "%"}, {"measurement": "dopachrome formation increase", "setting": "[2]; 300 micromolar", "result": "134±3", "unit": "%"}, {"measurement": "B16 tyrosinase activity increase", "setting": "[3]; 3 millimolar", "result": "91±6", "unit": "%"}, {"measurement": "B16 tyrosinase activity increase", "setting": "[3]; 300 micromolar", "result": "48±5", "unit": "%"}, {"measurement": "EC50", "setting": "[3]", "result": "~300", "unit": "µM"}, {"measurement": "viability at 72 h, 10 millimolar", "setting": "[4]", "result": "95 ± 2", "unit": "%"}, {"measurement": "intracellular melanin content increase", "setting": "[5]; [7]", "result": "62±6", "unit": "%"}]}, {"molecule": "COc1cc2ccc(=O)oc2cc1OC", "note": "[scoparone, Scoparone]", "values": [{"measurement": "intracellular melanin content increase", "setting": "[5]; 50 microgram per milliliter scoparone, 72 hours", "result": "53±6.9", "unit": "%"}]}, {"molecule": "N[C@@H](Cc1ccc(O)cc1)C(=O)O", "note": "[L-tyrosine]", "values": [{"measurement": "reversal of 6BH4-dependent tyrosinase inhibition", "setting": "[1]; 200 micromolar L-tyrosine added at minute 12 after 6BH4", "result": "neither the addition of P4 nor L-tyrosine reversed"}, {"measurement": "extracellular melanin content increase", "setting": "[5]; [8]", "result": "43±5", "unit": "%"}, {"measurement": "intracellular melanin content increase", "setting": "[5]; [8]", "result": "7±3", "unit": "%"}]}, {"molecule": "CC(C)Cn1c(=O)n(C)c(=O)c2[nH]cnc21", "note": "[IBMX, 3-isobutyl-1-methylxanthine]", "values": [{"measurement": "extracellular melanin content increase", "setting": "[5]; [7]", "result": "187±9", "unit": "%"}, {"measurement": "intracellular melanin content increase", "setting": "[5]; [7]", "result": "67±6", "unit": "%"}]}]}
